Measured values reported in US20190359653A1, “SELECTIVE PEPTIDE INHIBITORS OF FRIZZLED” (Genentech, Inc., priority 2016, published 2019).

How the values were obtained:
[1] = system: mouse intestinal organoids; experiment: RT-PCR of stem cell and Wnt transcripts in organoids; type: cell-based; conditions: for ISC markers Lgr5 and Ascl2: FIGS. 19A, 19B
Experimental: Mouse organoids were established from isolated crypts collected from the entire length of the small intestine and maintained as previously described (Sato et al. (2009) Nature 459, 262-265 (2009). All mouse derived tissue was performed according to the animal use guidelines of Genentech, a Member of the Roche Group, and the Institutional Animal Care and Use Committee, conforming to California State legal and ethical practices. Mouse sex was not selected for. Organoids were passaged at least twice per week and grown using IntestiCult Organoid growth media (cat. no. 06005; StemCell Technologies). Peptides were suspended in DMSO and dissolved in media to 1% DMSO final concentration, then added to organoids to initiate drug treatment. Antibodies were added to 10 μg/ml concentration. Organoids were imaged using a Nikon Eclipse Ti scope with a Nikon Plan Fluor 10×Ph1 DLL objective using an Andor Neo camera (1×1 binning; 200 ms exposure) and acquired using NIS Elements (v 4.50 64-bit; Nikon). APC^min organoids were generated as previously described (Melo, F.d.S.e. et al. A distinct role for Lgr5+ stem cells in primary and metastatic colon cancer. Nature 543, 676-680 (2017)). For organoids treated with CHIR99021 (5 μM; Stemcell Technologies) organoids were split and treated with DMSO or CHIR99021 (5 μM) for 24 hr. prior to the addition of peptide or DMSO for 24 hr.
RNA from organoid samples was isolated using the RNeasy Micro kit (cat. no. 74004; Qiagen) according to the manufacturer's instructions. Mouse small intestine RNA was collected using the RNeasy Mini Kit (cat. no. 74104; Qiagen). qRT-PCR was performed in 10 μL reactions with 50 ng total RNA using One-step Real-time RT-PCR mastermix (cat. no. 4392938; Life Technologies) according to the manufacturer's instructions. Taqman probes from Life Technologies were used: Actb (Mm01205647_g1); Lgr5 (Mm01251801_m1); Axin2 (Mm00443610_m1); Ascl2 (Mm01268891_g1); Olfm4 (Mm01320260_m1); Muc2 (Mm01276696_m1); ACTB(Hs99999903_m1); ACTB(Mm00607939_s1); GAPDH (Mm99999915_g1); and GAPDH(Hs03929097_g1). RT-PCR reactions were run using a 7900HT Fast Real-Time PCR system (ABI) at the following thermal cycling conditions: Holding step of 30 min at 48° C., followed by a holding step of 10 min at 95° C., and 40 cycles of 10 sec at 95° C. and 1 min at 60° C. Values were normalized to actin transcript levels and then normalized to control as described in the figure legend.
Treatment with Fz7-21S had no effect. […] The effects of dFz7-21 on both ISC potential and stem cell transcripts were similar to a control anti-Lrp6 antibody (i.e., a general inhibitor of Wnt signaling).

[2] = system: intestinal organoid samples; experiment: RNA sequencing of intestinal organoids; type: cell-based, mouse; conditions: 6 and 24 h
Experimental: RNA-Seq libraries were prepared using TruSeq RNA Sample Preparation kit (Illumina, CA). The libraries were sequenced on Illumina HiSeq 2500 sequencers to obtain on average 34 million single-end reads (50 bp) per sample. RNAseq reads were first aligned to ribosomal RNA sequences to remove ribosomal reads. The remaining reads were aligned to the mouse reference genome (NCBI Build 38) using GSNAP (version 2013-10-10) (Wu, T. D. & Nacu, S. Fast and SNP-tolerant detection of complex variants and splicing in short reads. Bioinformatics 26, 873-881 (2010)) allowing a maximum of two mismatches per 50 base sequence (parameters: ‘-M 2-n 10-B 2-i 1-N 1-w 200000-E 1-pairmax-rna=200000-clip-overlap’). Transcript annotation was based on the RefSeq database (NCBI Annotation Release 104). To quantify gene expression levels, the number of reads mapped to the exons of each RefSeq gene was calculated. Read counts were scaled by library size, quantile normalized and precision weights calculated using the “voom” R package (Law, C. W., Chen, Y., Shi, W. & Smyth, G. K. voom: precision weights unlock linear model analysis tools for RNA-seq read counts. Genome Biology 15, R29 (2014)). […] In addition, gene expression was obtained in form of normalized Reads Per Kilobase gene model per Million total reads (nRPKM) as described earlier (Srinivasan, K. et al. Untangling the brain's neuroinflammatory and neurodegenerative transcriptional responses. Nat Commun 7, 11295 (2016)). […]
We performed Quantitative Set Analysis for Gene Expression (QuSAGE) (Yaari, G., Bolen, C. R., Thakar, J. & Kleinstein, S. H. Quantitative set analysis for gene expression: a method to quantify gene set differential expression including gene-gene correlations. Nucleic Acids Research 41, e170-e170 (2013)) to identify relevant biological processes associated with Wnt inhibition. […]

Sequence | Muc2 ([1]; 24 and 48 h treatment) | ISC markers Lgr5 and Ascl2 ([1]; 24 and 48 h treatment) | Axin2 ([1]; FIG. 19C) | enterocyte markers [2] | expression of markers of Lgr5+ ISCs and reserve ISCs [2]
LPSDDLEFWCHVMY [dFz7-21] | upregulated | significantly down regulated | significantly reduced | up-regulation | substantial down-regulation
LPSDDLEFWSHVMY [Fz7-21S, negative control] |  | had no effect |  |  | Little or no change in gene expression
